Tested on: 186277-243-T-J2-PDC complex spheroid growth
Test: Anticancer human tumor 186277-243-T-J2-PDC patient-derived colon adenocarcinoma cell line growth inhibition [AhR]
Settings: for IC50: curve of first compound; for viability, T/C: stronger effect = lower value
Summary of the method: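 Agents were dosed in half-log steps down from roughly clinical Cmax, or from 10 microM where Cmax was unknown, alone and with AhR antagonists. Read-out: percent test/control growth of tumor spheroids containing HUVEC and MSC stromal cells.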

[1] = second compound 0.1 µM, first compound 0.000949 µM
[2] = second compound 0.1 µM, first compound 0.003 µM
[3] = second compound 0.1 µM, first compound 0.00949 µM
[4] = second compound 0.1 µM, first compound 0.03 µM
[5] = second compound 0.1 µM, first compound 0.0949 µM
[6] = second compound 0.1 µM, first compound 0.3 µM
[7] = second compound 0.316 µM, first compound 0.000949 µM
[8] = second compound 0.316 µM, first compound 0.003 µM
[9] = second compound 0.316 µM, first compound 0.00949 µM
[10] = second compound 0.316 µM, first compound 0.03 µM
[11] = second compound 0.316 µM, first compound 0.0949 µM
[12] = second compound 0.316 µM, first compound 0.3 µM
[13] = second compound 1 µM, first compound 0.000949 µM
[14] = second compound 1 µM, first compound 0.003 µM
[15] = second compound 1 µM, first compound 0.00949 µM
[16] = second compound 1 µM, first compound 0.03 µM
[17] = second compound 1 µM, first compound 0.0949 µM
[18] = second compound 1 µM, first compound 0.3 µM
[19] = second compound 3.16 µM, first compound 0.000949 µM
[20] = second compound 3.16 µM, first compound 0.003 µM
[21] = second compound 3.16 µM, first compound 0.00949 µM
[22] = second compound 3.16 µM, first compound 0.03 µM
[23] = second compound 3.16 µM, first compound 0.0949 µM
[24] = second compound 3.16 µM, first compound 0.3 µM
[25] = second compound 10 µM, first compound 0.000949 µM
[26] = second compound 10 µM, first compound 0.003 µM
[27] = second compound 10 µM, first compound 0.00949 µM
[28] = second compound 10 µM, first compound 0.03 µM
[29] = second compound 10 µM, first compound 0.0949 µM
[30] = second compound 10 µM, first compound 0.3 µM
[31] = second compound 0.1 µM, first compound 0.0316 µM
[32] = second compound 0.1 µM, first compound 0.1 µM
[33] = second compound 0.1 µM, first compound 0.316 µM
[34] = second compound 0.1 µM, first compound 1 µM
[35] = second compound 0.1 µM, first compound 3.16 µM
[36] = second compound 0.1 µM, first compound 10 µM
[37] = second compound 0.316 µM, first compound 0.0316 µM
[38] = second compound 0.316 µM, first compound 0.1 µM
[39] = second compound 0.316 µM, first compound 0.316 µM
[40] = second compound 0.316 µM, first compound 1 µM
[41] = second compound 0.316 µM, first compound 3.16 µM
[42] = second compound 0.316 µM, first compound 10 µM
[43] = second compound 1 µM, first compound 0.0316 µM
[44] = second compound 1 µM, first compound 0.1 µM
[45] = second compound 1 µM, first compound 0.316 µM
[46] = second compound 1 µM, first compound 1 µM
[47] = second compound 1 µM, first compound 3.16 µM
[48] = second compound 1 µM, first compound 10 µM
[49] = second compound 3.16 µM, first compound 0.0316 µM
[50] = second compound 3.16 µM, first compound 0.1 µM
[51] = second compound 3.16 µM, first compound 0.316 µM
[52] = second compound 3.16 µM, first compound 1 µM
[53] = second compound 3.16 µM, first compound 3.16 µM
[54] = second compound 3.16 µM, first compound 10 µM
[55] = second compound 10 µM, first compound 0.0316 µM
[56] = second compound 10 µM, first compound 0.1 µM
[57] = second compound 10 µM, first compound 0.316 µM
[58] = second compound 10 µM, first compound 1 µM
[59] = second compound 10 µM, first compound 3.16 µM
[60] = second compound 10 µM, first compound 10 µM
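Further: spheroids exposed to compounds for seven days before the viability read.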
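Wherever viability, T/C is given: luminescent signal used as a stand-in for viable cell amount; 100% = DMSO vehicle control wells.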

**Q.** What does the source list for `CC(C)CC(NC(=O)C(Cc1ccccc1)NC(=O)c1cnccn1)B(O)O` (stereo not given) + Cc1ccccc1N=Nc1ccc(NC(=O)c2ccnn2C)c(C)c1?
**A.** IC50 (second compound 0.1 µM): 17.7 nM; IC50 (second compound 0.316 µM): 16.8 nM; IC50 (second compound 1 µM): 16.2 nM; IC50 (second compound 3.16 µM): 15.9 nM; IC50 (second compound 10 µM): 16.7 nM; viability, T/C [1]: 101%; viability, T/C [2]: 108%; viability, T/C [3]: 109%; viability, T/C [4]: 2.71%; viability, T/C [5]: 1.36%; viability, T/C [6]: 0.12%; viability, T/C [7]: 104%; viability, T/C [8]: 118%; viability, T/C [9]: 97.3%; viability, T/C [10]: 1.86%; viability, T/C [11]: 0.39%; viability, T/C [12]: 0.12%; viability, T/C [13]: 99.8%; viability, T/C [14]: 98.2%; viability, T/C [15]: 91.5%; viability, T/C [16]: 1.95%; viability, T/C [17]: 1.08%; viability, T/C [18]: 0.12%; viability, T/C [19]: 104%; viability, T/C [20]: 95.4%; viability, T/C [21]: 89.1%; viability, T/C [22]: 1.92%; viability, T/C [23]: 0.77%; viability, T/C [24]: 0.14%; viability, T/C [25]: 96%; viability, T/C [26]: 90.1%; viability, T/C [27]: 98.6%; viability, T/C [28]: 3.12%; viability, T/C [29]: 0.43%; viability, T/C [30]: 0.21%

**Q.** `CCc1c2c(nc3ccc(O)cc13)-c1cc3c(c(=O)n1C2)COC(=O)[C@]3(O)CC` + Cc1ccccc1N=Nc1ccc(NC(=O)c2ccnn2C)c(C)c1 was tested. Which IC50 (second compound 0.1 µM) did it give?
**A.** 74 nM

**Q.** And the IC50 (second compound 0.316 µM)?
**A.** 66.3 nM

**Q.** And the IC50 (second compound 1 µM)?
**A.** 66.6 nM

**Q.** And the IC50 (second compound 3.16 µM)?
**A.** 60.6 nM

**Q.** What about the IC50 (second compound 10 µM) of the same molecule?
**A.** 61.4 nM

**Q.** And the viability, T/C [1]?
**A.** 119%

**Q.** What about the viability, T/C [2] of the same molecule?
**A.** 143%

**Q.** And the viability, T/C [3]?
**A.** 114%

**Q.** And the viability, T/C [4]?
**A.** 81.7%

**Q.** What about the viability, T/C [5] of the same molecule?
**A.** 42.6%

**Q.** What about the viability, T/C [6] of the same molecule?
**A.** 25.4%

**Q.** What about the viability, T/C [7] of the same molecule?
**A.** 114%

**Q.** And the viability, T/C [8]?
**A.** 145%

**Q.** And the viability, T/C [9]?
**A.** 123%

**Q.** What about the viability, T/C [10] of the same molecule?
**A.** 78%

**Q.** What about the viability, T/C [11] of the same molecule?
**A.** 40.5%

**Q.** What about the viability, T/C [12] of the same molecule?
**A.** 27%

**Q.** And the viability, T/C [13]?
**A.** 128%

**Q.** And the viability, T/C [14]?
**A.** 157%

**Q.** What about the viability, T/C [15] of the same molecule?
**A.** 123%

**Q.** And the viability, T/C [16]?
**A.** 80.5%

**Q.** And the viability, T/C [17]?
**A.** 37.9%

**Q.** And the viability, T/C [18]?
**A.** 24.2%

**Q.** And the viability, T/C [19]?
**A.** 125%

**Q.** What about the viability, T/C [20] of the same molecule?
**A.** 138%

**Q.** What about the viability, T/C [21] of the same molecule?
**A.** 119%

**Q.** What about the viability, T/C [22] of the same molecule?
**A.** 77%

**Q.** And the viability, T/C [23]?
**A.** 33.6%

**Q.** What about the viability, T/C [24] of the same molecule?
**A.** 21.1%

**Q.** And the viability, T/C [25]?
**A.** 106%

**Q.** And the viability, T/C [26]?
**A.** 114%

**Q.** And the viability, T/C [27]?
**A.** 106%

**Q.** And the viability, T/C [28]?
**A.** 76.6%

**Q.** What about the viability, T/C [29] of the same molecule?
**A.** 34.2%

**Q.** And the viability, T/C [30]?
**A.** 21.9%

**Q.** What does the source list for `Nc1ccccc1NC(=O)c1ccc(CNC(=O)OCc2cccnc2)cc1` + Cc1ccccc1N=Nc1ccc(NC(=O)c2ccnn2C)c(C)c1?
**A.** IC50 (second compound 0.1 µM): 5860 nM; IC50 (second compound 0.316 µM): 5370 nM; IC50 (second compound 1 µM): 5560 nM; IC50 (second compound 3.16 µM): 5100 nM; IC50 (second compound 10 µM): 4120 nM; viability, T/C [31]: 97.5%; viability, T/C [32]: 90%; viability, T/C [33]: 95.1%; viability, T/C [34]: 105%; viability, T/C [35]: 88.3%; viability, T/C [36]: 16.5%; viability, T/C [37]: 106%; viability, T/C [38]: 95.9%; viability, T/C [39]: 96.7%; viability, T/C [40]: 94.4%; viability, T/C [41]: 79%; viability, T/C [42]: 16.2%; viability, T/C [43]: 102%; viability, T/C [44]: 96.7%; viability, T/C [45]: 108%; viability, T/C [46]: 91.4%; viability, T/C [47]: 85.4%; viability, T/C [48]: 15%; viability, T/C [49]: 93.9%; viability, T/C [50]: 97.7%; viability, T/C [51]: 84.8%; viability, T/C [52]: 96.8%; viability, T/C [53]: 75.9%; viability, T/C [54]: 13.2%; viability, T/C [55]: 82.8%; viability, T/C [56]: 94.2%; viability, T/C [57]: 96.5%; viability, T/C [58]: 97.4%; viability, T/C [59]: 61.2%; viability, T/C [60]: 12.6%

**Q.** How did the IC50 (second compound 0.1 µM) turn out when `O=C(c1cc(Cc2n[nH]c(=O)c3ccccc23)ccc1F)N1CCN(C(=O)C2CC2)CC1` + Cc1ccccc1N=Nc1ccc(NC(=O)c2ccnn2C)c(C)c1 was run?
**A.** > 10000 nM

**Q.** And the IC50 (second compound 0.316 µM)?
**A.** > 10000 nM

**Q.** What about the IC50 (second compound 1 µM) of the same molecule?
**A.** > 10000 nM

**Q.** And the IC50 (second compound 3.16 µM)?
**A.** > 10000 nM

**Q.** What about the IC50 (second compound 10 µM) of the same molecule?
**A.** > 10000 nM

**Q.** And the viability, T/C [31]?
**A.** 102%

**Q.** And the viability, T/C [32]?
**A.** 95.4%

**Q.** And the viability, T/C [33]?
**A.** 95.5%

**Q.** What about the viability, T/C [34] of the same molecule?
**A.** 101%

**Q.** What about the viability, T/C [35] of the same molecule?
**A.** 99.2%

**Q.** And the viability, T/C [36]?
**A.** 123%

**Q.** What about the viability, T/C [37] of the same molecule?
**A.** 94%

**Q.** What about the viability, T/C [38] of the same molecule?
**A.** 111%

**Q.** And the viability, T/C [39]?
**A.** 97.5%

**Q.** And the viability, T/C [40]?
**A.** 101%

**Q.** What about the viability, T/C [41] of the same molecule?
**A.** 100%

**Q.** And the viability, T/C [42]?
**A.** 127%

**Q.** And the viability, T/C [43]?
**A.** 105%

**Q.** And the viability, T/C [44]?
**A.** 87.3%

**Q.** And the viability, T/C [45]?
**A.** 110%

**Q.** What about the viability, T/C [46] of the same molecule?
**A.** 95.1%

**Q.** And the viability, T/C [47]?
**A.** 113%

**Q.** And the viability, T/C [48]?
**A.** 127%

**Q.** And the viability, T/C [49]?
**A.** 109%

**Q.** And the viability, T/C [50]?
**A.** 96.5%

**Q.** And the viability, T/C [51]?
**A.** 104%

**Q.** What about the viability, T/C [52] of the same molecule?
**A.** 101%

**Q.** And the viability, T/C [53]?
**A.** 106%

**Q.** What about the viability, T/C [54] of the same molecule?
**A.** 111%

**Q.** What about the viability, T/C [55] of the same molecule?
**A.** 85.6%

**Q.** What about the viability, T/C [56] of the same molecule?
**A.** 86.1%

**Q.** What about the viability, T/C [57] of the same molecule?
**A.** 101%

**Q.** What about the viability, T/C [58] of the same molecule?
**A.** 93.3%

**Q.** What about the viability, T/C [59] of the same molecule?
**A.** 93.6%

**Q.** What about the viability, T/C [60] of the same molecule?
**A.** 91.6%
